Where two headings read alike, the source gives them in different places.
Target: T1, human B1 receptor (Homo sapiens, UniProt P46663)
T1 construct: host or cells: CHO-K1
T1 sequence (P46663 1-353): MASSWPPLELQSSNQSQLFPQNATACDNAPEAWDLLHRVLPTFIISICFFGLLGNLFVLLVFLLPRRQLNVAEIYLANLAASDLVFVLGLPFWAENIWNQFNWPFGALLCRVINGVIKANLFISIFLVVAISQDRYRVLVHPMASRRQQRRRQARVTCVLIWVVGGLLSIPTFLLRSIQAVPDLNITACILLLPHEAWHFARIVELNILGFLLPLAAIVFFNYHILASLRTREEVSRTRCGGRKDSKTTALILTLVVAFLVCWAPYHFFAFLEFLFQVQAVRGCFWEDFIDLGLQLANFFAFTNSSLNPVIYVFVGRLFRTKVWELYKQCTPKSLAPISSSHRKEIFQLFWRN
Assay: Calcium flux assay (FLIPR) with recombinant CHO-K1 cells expressing human B1 receptor
Assay type: cell-based
Experimental: The potency to inhibit the Bradykinin B1 receptors was determined for the example compounds of this invention in a cell-based fluorescent calcium-mobilisation assay. The assay measures the ability of example compounds to inhibit Bradykinin B1 receptor agonist-induced increase of intracellular free Ca^2+ in the cell line expressing B1 receptor. Specifically, calcium indicator-loaded cells are pre-incubated in the absence or presence of different concentrations of example compounds followed by the stimulation with a selective B1 receptor agonist peptide. The change of the intracellular Ca^2+ concentration is monitored with a fluorescent plate reader FLIPR (Molecular Devices).
Calcium Flux Assays (FLIPR) with Cells Expressing Bradykinin B1 Receptor Calcium Flux Assay (FLIPR) with Recombinant Cells for Bradykinin B1 Receptor Antagonist, Either in the Presence (hB1 IC50) or Absence (hB1 free IC50) of 0.1% Bovine Serum Albumin (BSA) in Assay Buffer
CHO-K1 cell line expressing human B1 receptor was purchased from Euroscreen (Gosselies, Belgium, with reference name hB1-D1). The cells were grown in Nutrient Mixture Ham's F12 (Sigma) containing 10% Foetal bovine serum (Sigma) and 400 μg/mL G418 (Sigma), 5 μg/mL puromycin (Sigma).
For the calcium flux assay, 80% confluent cells were detached from the culture vessels with Versene (Gibco), and seeded into 384-well plates (Cell binding Surface; Corning, N.Y.; #3683) at a density of 15,000 cells per well. Cells were seeded in a volume of 50 μL in medium without antibiotics and incubated overnight in a humidified atmosphere with 5% CO2 at 37° C. […] The calcium indicator loaded cells were incubated at 37° C. for 2 hrs. Extracellular dye was then removed and each well was filled with 45 μL of assay buffer. Cell plates were kept in dark until used. Example compounds were assayed at 8 concentrations in triplicate. Serial 10-fold dilutions in 100% DMSO were made at a 100-times higher concentration than the final concentration, and then diluted 1:10 in assay buffer. 5 μL of each diluted compound was added to the well of cell plates (yielding final concentration with 1% DMSO), and incubated for 30 min at 28° C. before the addition of B1 receptor agonist on the FLIPR instrument.
Agonist plates contained the agonist Lys-(Des-Arg)-Bradykinin (Bachem, Brackley) at 3.5×EC90 in assay buffer with 1% DMSO. The addition of agonist 20 μl per well to the assay plate was carried out on the FLIPR instrument while continuously monitoring Ca^2+-dependent fluorescence at 538 nm. A peptide antagonist Lys-(Des-Arg-Leu)-Bradykinin (Bachem, Brackley) at 20 μM was used to determine the full inhibition as control.
Peak fluorescence was used to determine the response to agonist obtained at each concentration of example compound by the following equation:
% Response=100*(RFU(example compound)−RFU(control)/(RFU(DMSO)−RFU(control)
Control=full inhibition by the peptide antagonist Lys-(Des-Arg-Leu)-Bradykinin at 20 μM
The response values were plotted against the logarithm of the compound concentrations. The compounds were tested in triplicates per plate and mean values were plotted in Excel XLfit to determine IC50 values, percentage of maximal inhibition and the Hill slopes.

[1] = presence of 0.1% BSA in assay buffer, read-out: hB1 IC50
[2] = absence of 0.1% BSA in assay buffer, read-out: hB1 free IC50

Row | Compound | IC50 [1] [nM] | IC50 [2] [nM]
1 | COc1ccc(-c2ccc(NC(=O)C3CC3c3cnn(C)c3)cc2-c2nnn[nH]2)cc1OC (racemic) [Example 2, N-[3′,4′-dimethoxy-2-(1H-tetrazol-5-yl)biphenyl-4-yl]-2-(1-methyl-1H-pyrazol-4-yl)cyclopropanecarbox-amide] | 2120 | 
2 | COc1ccc(C2CC2C(=O)Nc2ccc(-c3ccc(OC)c(OC)c3)c(-c3nnn[nH]3)c2)cc1 (racemic) [Example 13, N-[3′,4′-dimethoxy-2-(1H-tetrazol-5-yl)biphenyl-4-yl]-2-(4-methoxyphenyl)cyclo-propanecarboxamide] | 1050 | 
3 | COc1cncc(-c2ccc(NC(=O)C3CC3c3cccc(C)c3)cc2-c2nnn[nH]2)c1 (racemic) [Example 25, N-[4-(5-Methoxypyridin-3-yl)-3-(1H-tetrazol-5-yl)phenyl]-2-(3-methylphenyl)cyclopro-panecarboxamide] | 520 | 
4 | COc1ccc(-c2ccc(NC(=O)C3CC3C3CCCCC3)cc2-c2nnn[nH]2)cc1Cl (racemic) [Example 40, N-[3′-chloro-4′-methoxy-2-(1H-tetrazol-5-yl)biphenyl-4-yl]-2-cyclohexylcyclopropane-carboxamide] | 1030 | 
5 | COc1ccc(-c2ccc(NC(=O)C3CC3c3ccccc3F)cc2-c2nnn[nH]2)cc1OC (racemic) [Example 3, N-[3′,4′-dimethoxy-2-(1H-tetrazol-5-yl)biphenyl-4-yl]-2-(2-fluorophenyl)cyclopro-panecarboxamide] | 101 | 
6 | COc1ccc(-c2ccc(NC(=O)C3CC3c3ccc(C)cc3)cc2-c2nnn[nH]2)cc1 (racemic) [Example 36, N-[4′-methoxy-2-(1H-tetrazol-5-yl)biphenyl-4-yl]-2-(4-methylphenyl)cyclopro-panecarboxamide] | 662 | 
7 | COc1ccc(-c2ccc(NC(=O)C3CC3c3ccccc3C)cc2-c2nnn[nH]2)cc1OC (racemic) [Example 4, N-[3′,4′-dimethoxy-2-(1H-tetrazol-5-yl)biphenyl-4-yl]-2-(2-methylphenyl)cyclopro-panecarboxamide] | 27 | 12
8 | COc1ccc(-c2ccc(NC(=O)C3CC3C3CCCCC3)cc2-c2nnn[nH]2)cc1C (single isomer, unassigned) [Example 35, 2-Cyclohexyl-N-[4′-methoxy-3′-methyl-2-(1H-tetrazol-5-yl)biphenyl-4-yl]cyclopropanecarbox-amide] | 378 | 
9 | CCOc1ncc(-c2ccc(NC(=O)C3CC3c3ccc(Cl)cc3)cc2-c2nnn[nH]2)cn1 (racemic) [Example 27, 2-(4-Chlorophenyl)-N-[4-(2-ethoxypyrimidin-5-yl)-3-(1H-tetrazol-5-yl)phenyl]cyclopropane-carboxamide] |  | 13
10 | O=C(Nc1ccc(-c2ccc(OC(F)(F)F)cc2)c(-c2nnn[nH]2)c1)C1CC1C1CCCCC1 (racemic) [Example 42, 2-cyclohexyl-N-[2-(1H-tetrazol-5-yl)-4′-(trifluoro-methoxy)biphenyl-4-yl]cyclopropanecarbox-amide] | 31 | 
11 | CCOc1ccc(-c2ccc(NC(=O)C3CC3c3ccc(F)cc3)cc2-c2nnn[nH]2)cn1 (racemic) [Example 16, N-[4-(6-ethoxypyridin-3-yl)-3-(1H-tetrazol-5-yl)phenyl]-2-(4-fluorophenyl)cyclopro-panecarboxamide] | 15 | 
12 | CCOc1cncc(-c2ccc(NC(=O)C3CC3c3ccc(Cl)cc3)cc2-c2nnn[nH]2)c1 (racemic) [Example 22, 2-(4-Chlorophenyl)-N-[4-(5-ethoxypyridin-3-yl)-3-(1H-tetrazol-5-yl)phenyl]cyclopro-panecarboxamide] | 603 | 

The next lines start with the values.

Row | IC50 [1] [nM] | IC50 [2] [nM] | Compound
13 |  | 147 | CC(C)(C)c1cn(-c2ccc(NC(=O)C3CC3c3ccc(Cl)cc3)cc2-c2nnn[nH]2)cn1 (single isomer, unassigned) [Example 85, N-[4-(4-tert-butyl-1H-imidazol-1-yl)-3-(1H-tetrazol-5-yl)phenyl]-2-(4-chlorophenyl)cyclopropanecarboxamide]
14 |  | 1220 | O=C(Nc1ccc(-n2ccc(C(F)(F)F)n2)c(-c2nnn[nH]2)c1)C1CC1c1ccc(Cl)cc1 (racemic) [Example 47, 2-(4-Chlorophenyl)-N-{3-(1H-tetrazol-5-yl)-4-[3-(trifluoromethyl)-1H-pyrazol-1-yl]phenyl}cyclopropane-carboxamide]
15 | 226 |  | CCOc1ccc(-c2cc(C)c(NC(=O)C3CC3C3CCCCC3)cc2-c2nnn[nH]2)cc1OC (racemic) [Example 73, 2-Cyclohexyl-N-[4′-ethoxy-3′-methoxy-5-methyl-2-(1H-tetrazol-5-yl)biphenyl-4-yl]cyclopro-panecarboxamide]
16 | 86 | 157 | Cc1cccc(C2CC2C(=O)Nc2cc(-c3nnn[nH]3)c(-c3ccc(C(F)(F)F)nc3)cc2C)c1 (racemic) [Example 70, 2-(3-Methylphenyl)-N-{2-methyl-5-(1H-tetrazol-5-yl)-4-[6-(trifluoromethyl)pyridin-3-yl]phenyl}cyclopro-panecarboxamide]
17 | 38 |  | CCOc1ccc(-c2cc(C)c(NC(=O)C3CC3c3cccc(C)c3)cc2-c2nnn[nH]2)cc1OC (racemic) [Example 72, N-[4′-Ethoxy-3′-methoxy-5-methyl-2-(1H-tetrazol-5-yl)biphenyl-4-yl]-2-(3-methylphenyl)cyclopro-panecarboxamide]
18 |  | 2210 | O=C(Nc1ccc(-n2cc(C(F)(F)F)cn2)c(-c2nnn[nH]2)c1)C1CC1c1ccccc1 (racemic) [Example 43, 2-Phenyl-N-{3-(1H-tetrazol-5-yl)-4-[4-(trifluoromethyl)-1H-pyrazol-1-yl]phenyl}cyclopro-panecarboxamide]
19 |  | 249 | Cc1cccc(C2CC2C(=O)Nc2ccc(-c3cc4ccccc4s3)c(-c3nnn[nH]3)c2)c1 (racemic) [Example 76, N-[4-(1-Benzothiophen-2-yl)-3-(1H-tetrazol-5-yl)phenyl]-2-(3-methylphenyl)cyclopro-panecarboxamide]
20 | 12400 | 1310 | Cn1cc(-c2ccc(NC(=O)C3CC3c3ccc(Cl)cc3)cc2-c2nnn[nH]2)cn1 (racemic) [Example 80, 2-(4-chlorophenyl)-N-[4-(1-methyl-1H-pyrazol-4-yl)-3-(1H-tetrazol-5-yl)phenyl]cyclopropane-carboxamide]
21 | 4070 | 2500 | CCOc1ccc(-c2ccc(NC(=O)C3CC3c3cnn(C)c3)cc2-c2nnn[nH]2)cn1 (racemic) [Example 81, N-[4-(6-ethoxypyridin-3-yl)-3-(1H-tetrazol-5-yl)phenyl]-2-(1-methyl-1H-pyrazol-4-yl)cyclopro-panecarboxamide]
22 | 12 |  | CCOc1ccc(-c2ccc(NC(=O)C3CC3c3cccc(C)c3)cc2-c2nnn[nH]2)cc1OC (racemic) [Example 77, N-[4′-ethoxy-3′-methoxy-2-(1H-tetrazol-5-yl)biphenyl-4-yl]-2-(3-methylphenyl)cyclopro-panecarboxamide]
23 | 6460 | 71 | O=C(Nc1ccc(-c2ccc(C(F)(F)F)nc2)c(-c2nnn[nH]2)c1)C1CC1c1ccc(Cl)cc1 (racemic) [Example 79, 2-(4-chlorophenyl)-N-{3-(1H-tetrazol-5-yl)-4-[6-(trifluoro-methyl)pyridin-3-yl]phenyl}cyclopropane-carboxamide]
24 | 2550 |  | COCc1ccc(-c2ccc(NC(=O)C3CC3C3CCCCC3)cc2-c2nnn[nH]2)cc1 (racemic) [Example 82, 2-cyclohexyl-N-[4′-(methoxymethyl)-2-(1H-tetrazol-5-yl)biphenyl-4-yl]cyclopropanecarbox-amide]
